Calls of active or inactive are those of the source. No cut-off for these calls is given here.
Columns and labels:
LSD1/CoREST complex [1] = target: T1, LSD1/CoREST complex (Homo sapiens, UniProt O60341)
Description: Inhibition of recombinant human KDM1A/CoREST complex expressed in Escherichia coli using biotinylated H3K4me1 peptide as substrate preincubated for 20 mins measured after 1 hr by TR-FRET assay

LSD1/CoREST complex [2] = target: T1, LSD1/CoREST complex; experiment: Inhibition of recombinant human KDM1A/CoREST complex expressed in Escherichia coli using biotinylated H3K4me1 peptide as substrate preincubated for 10 mins with enzyme followed by substrate addition measured after 1 hr by TR-FRET HTS assay
LSD1/CoREST complex [3] = target: T1, LSD1/CoREST complex; experiment: Competitive inhibition of recombinant human KDM1A/CoREST complex expressed in Escherichia coli using H3K4me1 peptide as substrate preincubated for 15 mins followed by substrate addition measured for 12 mins by Lineweaver-Burk plot analysis
LSD1/CoREST complex [4] = target: T1, LSD1/CoREST complex; remark: listed apart in the source
Description: Inhibition of recombinant human KDM1A/CoREST complex expressed in Escherichia coli using H3K4me1 peptide as substrate preincubated for 15 mins with enzyme followed by substrate addition measured after 12 mins by Amplex Ultra Red reagent based HRP enzyme coupled assay

[5] = target: T2, Amine oxidase [flavin-containing] A (Homo sapiens, UniProt P21397)
T2 sequence (P21397 whole entry): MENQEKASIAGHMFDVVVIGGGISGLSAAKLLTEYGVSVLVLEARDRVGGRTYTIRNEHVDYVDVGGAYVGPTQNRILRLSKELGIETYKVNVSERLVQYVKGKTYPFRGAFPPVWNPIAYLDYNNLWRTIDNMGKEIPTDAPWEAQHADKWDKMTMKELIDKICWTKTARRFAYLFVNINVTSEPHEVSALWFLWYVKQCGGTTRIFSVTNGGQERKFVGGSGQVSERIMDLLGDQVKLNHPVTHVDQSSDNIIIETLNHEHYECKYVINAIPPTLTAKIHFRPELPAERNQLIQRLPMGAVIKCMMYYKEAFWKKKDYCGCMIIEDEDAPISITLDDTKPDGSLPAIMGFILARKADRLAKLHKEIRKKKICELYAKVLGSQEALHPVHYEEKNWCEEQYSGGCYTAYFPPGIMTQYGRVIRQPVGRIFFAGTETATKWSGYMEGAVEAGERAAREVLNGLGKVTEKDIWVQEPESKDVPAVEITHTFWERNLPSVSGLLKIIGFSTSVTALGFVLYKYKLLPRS
Description: Inhibition of recombinant human MAOA incubated for 15 mins measured after 30 mins by luminescence-Glo assay

[6] = target: T3, Amine oxidase [flavin-containing] B (Homo sapiens, UniProt P27338)
T3 sequence (P27338 whole entry): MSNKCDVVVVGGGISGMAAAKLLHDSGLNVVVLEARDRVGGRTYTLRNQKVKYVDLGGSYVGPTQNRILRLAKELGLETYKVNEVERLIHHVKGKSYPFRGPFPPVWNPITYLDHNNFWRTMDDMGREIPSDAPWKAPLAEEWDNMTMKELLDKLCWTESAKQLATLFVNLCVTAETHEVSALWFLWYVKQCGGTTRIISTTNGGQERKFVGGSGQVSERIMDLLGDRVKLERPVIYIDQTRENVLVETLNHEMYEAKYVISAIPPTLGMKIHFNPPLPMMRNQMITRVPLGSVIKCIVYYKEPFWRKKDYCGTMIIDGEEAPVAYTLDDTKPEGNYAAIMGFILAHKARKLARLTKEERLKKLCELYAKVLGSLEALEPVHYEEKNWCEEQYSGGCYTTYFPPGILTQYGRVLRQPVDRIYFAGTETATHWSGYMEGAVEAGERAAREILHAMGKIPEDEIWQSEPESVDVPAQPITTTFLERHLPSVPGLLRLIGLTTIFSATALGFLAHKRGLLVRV
Description: Inhibition of recombinant human MAOB incubated for 15 mins measured after 30 mins by luminescence-Glo assay

[7] = target: Lysine-specific histone demethylase 1A (Homo sapiens) (UniProt O60341); experiment: Inhibition of KDM1A in human THP1 cells assessed as increase in CD14 mRNA expression level at 1 uM after 24 hrs by qRT-PCR analysis relative to control; format: cell-based
[8] = target: Lysine-specific histone demethylase 1A (Homo sapiens) (UniProt O60341); experiment: Inhibition of KDM1A in human THP1 cells assessed as increase in CD11b mRNA expression level at 1 uM after 24 hrs by qRT-PCR analysis relative to control; format: cell-based
THP-1 [9] = experiment: Induction of apoptosis in human THP1 cells at 1 uM after 72 hrs by Annexin V-propidium iodide staining based flow cytometry; format: functional, cell-based
THP-1 [10] = experiment: Induction of cell death in human THP1 cells at 1 uM after 72 hrs by propidium iodide staining based flow cytometry; format: functional
[11] = target: T4, Lysine-specific histone demethylase 2 (Homo sapiens, UniProt Q8NB78)
T4 sequence (Q8NB78 whole entry): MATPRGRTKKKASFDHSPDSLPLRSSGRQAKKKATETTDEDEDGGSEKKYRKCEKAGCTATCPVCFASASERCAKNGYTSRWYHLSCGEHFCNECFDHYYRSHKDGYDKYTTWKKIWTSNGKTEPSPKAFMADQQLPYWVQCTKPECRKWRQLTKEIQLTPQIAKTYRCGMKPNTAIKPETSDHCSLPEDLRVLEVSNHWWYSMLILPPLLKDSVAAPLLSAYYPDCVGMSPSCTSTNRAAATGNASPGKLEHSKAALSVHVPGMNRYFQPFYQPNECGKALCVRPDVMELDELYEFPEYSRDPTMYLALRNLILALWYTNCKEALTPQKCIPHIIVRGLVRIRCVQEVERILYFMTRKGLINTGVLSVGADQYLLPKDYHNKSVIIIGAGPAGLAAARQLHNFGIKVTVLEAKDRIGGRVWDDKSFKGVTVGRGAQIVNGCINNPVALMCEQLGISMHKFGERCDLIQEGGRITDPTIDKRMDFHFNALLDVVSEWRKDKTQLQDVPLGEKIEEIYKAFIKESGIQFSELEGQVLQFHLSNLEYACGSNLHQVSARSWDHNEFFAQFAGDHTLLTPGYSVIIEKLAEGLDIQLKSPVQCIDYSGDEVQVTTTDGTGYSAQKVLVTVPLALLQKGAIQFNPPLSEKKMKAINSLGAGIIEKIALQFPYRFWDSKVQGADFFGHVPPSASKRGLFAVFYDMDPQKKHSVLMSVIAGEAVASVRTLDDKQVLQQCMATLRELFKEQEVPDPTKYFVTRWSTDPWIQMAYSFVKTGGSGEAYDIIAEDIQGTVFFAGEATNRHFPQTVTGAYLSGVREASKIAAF
Description: Inhibition of KDM1B (unknown origin)

THP-1 [12] = experiment: Induction of apoptosis in human THP1 cells at 0.5 uM after 72 hrs by Annexin V-propidium iodide staining based flow cytometry; format: functional, cell-based
THP-1 [13] = experiment: Induction of cell death in human THP1 cells at 0.5 uM after 72 hrs by propidium iodide staining based flow cytometry; format: functional
THP-1 [14] = experiment: Anticlonogenic activity against human THP1 cells assessed as inhibition of colony formation at 0.5 uM after 13 days relative to control; format: functional; settings: THP-1, 312 h
[15] = test system: CC(=O)c1ccc(CN2CCC3(CCNCC3)C2)cc1; settings: Homo sapiens
Description: Inhibition of recombinant human KDM1A/CoREST complex expressed in Escherichia coli assessed as Km for substrate using H3K4me1 peptide as substrate preincubated for 15 mins followed by substrate addition measured for 12 mins by Lineweaver-Burk plot analysis

THP-1 [16] = experiment: Anticlonogenic activity against human THP1 cells assessed as inhibition of colony formation at 5 uM after 13 days relative to control; format: functional; settings: THP-1, 312 h
[17] = target: Lysine-specific histone demethylase 1A (Homo sapiens) (UniProt O60341); experiment: Inhibition of KDM1A in human THP1 cells assessed as increase in CD86 mRNA expression level at 5 uM after 24 hrs by qRT-PCR analysis relative to control; format: cell-based

Compound | IC50 (LSD1/CoREST complex [1]) | also measured
Cn1c(C(=O)Nc2ccccc2)cc2scnc21 | > 100 µM | –
Cn1c(C(=O)Nc2ccccc2)c(Cl)c2sccc21 | > 100 µM | –
Cn1c(C(=O)Nc2ccccc2)cc2sccc21 | 25.7 µM | –
Cn1c(C(=O)Nc2ccccc2)c(I)c2sc(I)cc21 | > 100 µM | –
Cn1c(C(=O)Nc2cccnc2)cc2sccc21 | 61.5 µM | –
CN(C)Cc1cc2c(cc(C(=O)Nc3ccccc3)n2C)s1 | > 100 µM | –
CSCc1cccc(NC(=O)c2cc3sccc3n2C)c1 | 7.4 µM | –
Cn1c(C(=O)Nc2cccc(Oc3ccncc3)c2)cc2sccc21 | 89.9 µM | –
CN1CCC(COc2cccc(NC(=O)c3cc4sccc4n3C)c2)CC1 | 2.2 µM | –
CN1CCN(c2cccc(NC(=O)c3cc4sccc4n3C)c2)CC1 | 21.5 µM | –
COc1cccc(NC(=O)c2cc3sccc3n2C)c1 | 26.5 µM | –
CC(=O)c1ccc(CN2CCC3(CCNCC3)C2)cc1 | 8.1 µM | IC50 (LSD1/CoREST complex [2]): 5 µM; Ki (LSD1/CoREST complex [3]): 48.4 µM; IC50 (LSD1/CoREST complex [4]): 82.4 µM; IC50 [5]: > 100 µM; IC50 [6]: 42.5 µM
Cn1c(C(=O)Nc2cccc(Br)c2)cc2sccc21 | > 100 µM | –
O=C(Nc1ccccc1)c1cc2sccc2n1S(=O)(=O)c1ccccc1 | > 100 µM | –
O=C(Nc1ccccc1)c1cc2sccc2[nH]1 | > 100 µM | –
Cc1nc(-n2nc(-c3cccs3)cc2NC(=O)COc2ccccc2F)[nH]c(=O)c1C | – | IC50 (LSD1/CoREST complex [2]): 0.76 µM
CN(C)c1cccc(NC(=O)c2cc3sccc3n2C)c1 | 29.6 µM | –
CN(C)Cc1c(C(=O)Nc2ccccc2)n(C)c2ccsc12 | > 100 µM | –
Cn1c(C(=O)Nc2ccccc2)cc2ccsc21 | 38.8 µM | –
Cn1c(C(=O)Nc2cccc(COc3ccncc3)c2)cc2sccc21 | 9.4 µM | –
Cn1cnc2[nH]c(C(=O)Nc3ccccc3)cc21 | > 100 µM | –

Compound | IC50 (LSD1/CoREST complex [1]) | also measured
Cn1c(C(=O)Nc2ncccn2)cc2sccc21 | > 100 µM | –
Cc1csc2cc(C(=O)Nc3ccccc3)n(C)c12 | > 100 µM | –
CN1CCC(Oc2ccc(OCc3cccc(NC(=O)c4cc5sccc5n4C)c3)cc2)CC1 | 0.44 to 0.442 µM | fold change (FC) [7]: 2.76; fold change (FC) [8]: 4.76; Activity (THP-1 [9]): inactive; Activity (THP-1 [10]): inactive; IC50 [11]: > 100 µM; IC50 [5]: > 100 µM; IC50 [6]: 7.6 µM
Cn1c(C(=O)Nc2cccc(CN3CCOCC3)c2)cc2sccc21 | 11.1 µM | –
NC1CCC(N[C@@H]2C[C@H]2c2ccccc2)CC1 (stereo partly drawn) | – | Activity (THP-1 [12]): inactive; Activity (THP-1 [13]): inactive; inhibition at 0.5 µM (THP-1 [14]): 70%; IC50 [11]: 43.4 µM; IC50 [5]: 48.3 µM
Cc1cc2c(cc(C(=O)Nc3ccccc3)n2C)s1 | > 100 µM | –
O=C(Nc1ccccc1)c1cc2sccc2s1 | > 100 µM | –
Cn1ncc2cc(C(=O)Nc3ccccc3)n(C)c21 | > 100 µM | –
CCCn1c(C(=O)Nc2ccccc2)cc2sccc21 | 53.2 µM | –
Cc1c(C(=O)Nc2ccccc2)n(C)c2ccsc12 | > 100 µM | –
Cn1c(C(=O)Nc2cccc(C(N)=O)c2)cc2sccc21 | 97.3 µM | –
Cn1c(C(=O)Nc2cccc(OCc3ccncc3)c2)cc2sccc21 | 7.2 µM | –
Cn1c(C(=O)Nc2ccccc2)c(I)c2sccc21 | > 100 µM | –
LSD1/CoREST complex (Homo sapiens) (from UniProt O60341+Q9UKL0) | – | Km [15]: 1.4 µM
Cn1c(C(=O)Nc2cccc(F)c2)cc2sccc21 | 22.2 µM | –
NCCn1c(C(=O)Nc2ccccc2)cc2sccc21 | 48.1 µM | –
Cc1oc(-c2ccc(Cl)cc2[N+](=O)[O-])cc1C(=O)Nc1ccccc1 | – | IC50 (LSD1/CoREST complex [2]): 3.5 µM
Cn1c(C(=O)Nc2ccncn2)cc2sccc21 | > 100 µM | –
Cn1c(C(=O)Nc2cccc(COc3ccc(O)cc3)c2)cc2sccc21 | 25.2 µM | –
Cn1c(C(=O)Nc2cccc(COc3ccc(OC4CCNCC4)cc3)c2)cc2sccc21 | 0.16 to 0.162 µM | fold change (FC) [7]: 4.79; fold change (FC) [8]: 4.61; Activity (THP-1 [9]): inactive; Activity (THP-1 [10]): inactive; inhibition at 5 µM (THP-1 [16]): 29.5%; fold change (FC) [17]: 14.3; IC50 [11]: > 100 µM; IC50 [5]: > 100 µM; IC50 [6]: 7.16 µM
CCn1c(C(=O)Nc2ccccc2)cc2sccc21 | 9.3 µM | –

Compound | IC50 (LSD1/CoREST complex [1]) | also measured
COCc1c(C(=O)Nc2ccccc2)n(C)c2ccsc12 | > 100 µM | –
COCc1cccc(NC(=O)c2cc3sccc3n2C)c1 | – | IC50 [11]: > 100 µM; IC50 [5]: > 100 µM; IC50 [6]: 56.8 µM
Cn1c(C(=O)Nc2ccccc2)cc2ncsc21 | > 100 µM | –
Cn1c(C(=O)Nc2ccncc2)cc2sccc21 | > 100 µM | –
Cn1c(C(=O)Nc2ccccc2)nc2sccc21 | > 100 µM | –
CN(C)Cc1cccc(NC(=O)c2cc3sccc3n2C)c1 | 16.7 µM | –
Cn1c(C(=O)Nc2cccc(COc3ccccc3)c2)cc2sccc21 | > 100 µM | –
Cn1ccc2c1cc(C(=O)Nc1ccccc1)n2C | > 100 µM | –
Cn1c(C(=O)Nc2cccc(CO)c2)cc2sccc21 | 52.3 µM | –
Cn1c(C(=O)Nc2ccccc2)cc2sc(I)cc21 | > 100 µM | –
Cn1c(C(=O)Nc2ccccc2)cc2sc(F)cc21 | > 100 µM | –
Cn1cnc2c1cc(C(=O)Nc1ccccc1)n2C | > 100 µM | –
Cn1c(C(=O)Nc2ccccc2)cc2occc21 | 89.5 µM | –
O=C(Nc1ccccc1)c1ccc2sccc2c1 | > 100 µM | –
O=C(Nc1ccccc1)c1cc2sccc2n1-c1ccccc1 | > 100 µM | –
Cc1sc2cc(C(=O)Nc3ccccc3)n(C)c2c1C | > 100 µM | –
Cn1c(C(=O)Nc2ccccc2)cc2sc(Br)cc21 | > 100 µM | –
Cn1c(C(=O)Nc2ccccn2)cc2sccc21 | > 100 µM | –
Cn1c(C(=O)Nc2cccc(Cl)c2)cc2sccc21 | 18.7 µM | –
